According to patent US20140303144A1, “COMPOUNDS AND METHODS OF TREATING HYPERTENSION” (Medivation Technologies, Inc., priority 2011, published 2014):

system: SH-SY5Y cells; assay: Cell viability assay (MTS reduction) against 4-Br-A23187 challenge; format: cell-based; details: Homo sapiens, SH-SY5Y, compound 10 nM, 4-Br-A23187 (2 μM) for 24 h, Control = 100, Vehicle = 0, read-out: Relative Cytoprotective capacity
Procedure: SH-SY5Y cells cultured in DMEM/F12 media supplemented with 10% FBS were seeded in 96-well microplates at 150,000 cells/cm^2. After 24 h, cells were depleted from FBS and kept in culture for 24 h before the experiment. A stock solution was prepared by dissolving the calcium ionophore 4-Br-A23187 (Calbiochem Cat. N^o 100107) in DMSO at 25 mM. Cells were then treated with 4-Br-A23187 (2 μM), hydrogen peroxide (300 μM) or the mitochondrial toxin rotenone (25 μM) in the presence of vehicle or Compound of the Invention for 24 h. Cell death was determined by measurements of LDH release according to the Cytotoxicity Detection KitPlus (Roche, Mannheim, Germany). Cell viability was determined by measuring the capacity of cells to metabolize MTS tetrazolium (MTS) according to the Cytotoxicity Detection KitPlus (Roche, Mannheim, Germany) and MTS reduction was assessed by the CellTiter 96® AQueous One Solution Cell Proliferation assay (Promega Corporation, Madison, Wis., USA). Compounds were screened at 10 nM, using DMSO as vehicle. Assay results for the experiments with Br-A23187 were presented as the MTS reduction capacity (cell viability) of untreated cells (control), 4-Br-A23187-treated cells (vehicle), and co-incubation of Br-A23187 with Compounds of the Invention treated cells and using […] (FCCP) at 10 μM for 30 min as a control. This assay assesses the ability of the test compounds to protect against cell death that was mediated by mitochondrial dysfunction. In the assay, the calcium ionophore 4-Br-A23187 was used to challenge the cells, causing calcium levels to rise in mitochondria, which leads to depolarization and cell death. Test compounds were assessed for their ability to prevent cell death in response to challenge with 4-Br-A23187.

Row | Structure (SMILES) | viability at 0.01 µM
1 | Cc1cc(C#Cc2ccncc2)c2[nH]c3c(c2c1)CN(C)CC3 [A5] | 28.8%
2 | CN1CCc2[nH]c3c(N(C)Cc4ccccc4)cccc3c2C1 [A1] | -1.1%
3 | Cc1cc(C#Cc2ccc(C)nc2)c2[nH]c3c(c2c1)CN(C)CC3 [A6] | 27.6%
4 | Cc1cc(CCc2ccc(C)nc2)c2[nH]c3c(c2c1)CN(C)CC3 [A2] | -4.41%
5 | Cc1ccc2c(c1)c1c3n2CC(c2ccncc2)OC(C)CC3(C)CN(C)C1 (stereo not shown) [D8] | 73.1%
6 | Cc1ccc2c(c1)c1c3n2CC=C(c2ccc(F)cc2)CC3(C)CN(C)C1 (stereo not shown) [D5] | 72.1%

same assay, conditions: compound 10 nM, 4-Br-A23187 (2 μM) for 24 h, Control = 100, Vehicle = 0

Row | Structure (SMILES) | Relative Cytoprotective capacity
7 | Cc1ccc2[nH]c3c(c2c1)CN(C)CC3(C)CCc1ccc(C)nc1 (stereo not shown) [C46] | −0.04527
8 | Cc1ccc2[nH]c3c(c2c1)CN(C)CC3(C)CCc1ccccc1 (stereo not shown) [C43] | 9.618
9 | Cc1ccc2c(c1)c1c(n2C)C(C)(CCc2ccc(C)nc2)CN(C)C1 (stereo not shown) [C45] | 4.348

system: New Zealand White rabbits; assay: not given; details: conscious rabbits, intravenous cumulative doses, positive control

Row | Structure (SMILES) | maximum drop of arterial blood pressure
10 | Clc1cccc(Cl)c1N=C1NCCN1 [Clonidine] | −6 mmHg
